Test results as given in US20060280697A1, “Composition” (Conopco Inc, d/b/a UNILEVER, priority 2005, published 2006).
Entries after “also recorded” stand apart in the source; their conditions may differ.

Assay: cooling sensation / cooling effect of synthesised compounds

Structure (SMILES) | cooling effect
COc1cccc(C2=CCN(c3ccccc3O)C(=O)N2)c1 [1-(2′-hydroxyphenyl)-4-(3″-methoxyphenyl)-1,2,3,6-tetrahydropyrimidine-2-one] | good cooling effects; also recorded: exhibit a cooling effect
O=C1NC(c2ccccc2)=CCN1c1ccccc1O [1-(2′-hydroxyphenyl)-4-phenyl-1,2,3,6-tetrahydropyrimidine-2-one] | good cooling effects; also recorded: exhibit a cooling effect
O=C1NC(c2cccc([N+](=O)[O-])c2)=CCN1c1ccccc1C(F)(F)F [1-(2′-trifluoromethylphenyl)-4-(3″-nitrophenyl)-1,2,3,6-tetrahydropyrimidine-2-one] | good cooling effects; also recorded: exhibit a cooling effect
O=C1NC(c2cccc([N+](=O)[O-])c2)=CCN1c1ccccc1 [1-phenyl-4-(3″-nitrophenyl)-1,2,3,6-tetrahydropyrimidine-2-one] | good cooling effects; also recorded: exhibit a cooling effect
